“And” between values parts separate entries of the source, which are not always exact repeats. Identical values can stand only once. Like-named read-outs stand apart in the source and are kept apart here.
Columns and labels:
[1] = system: Reuber rat hepatoma (RH) cells; experiment: alamarBlue viability assay on RH cells; type: cell-based; conditions: 120 h, 5 days
Method: For testing growth inhibitory effects on confluent host cells, cells were seeded in 96-well plates (10,000 cells per well for HFF and 50,000 cells per well for RH cells), in DMEM containing FBS (10%) and antibiotics (100 U penicillin, 100 μg streptomycin and 0.25 μg amphotericin B per mL medium) and were cultured overnight at 37°C, 5% CO2. Thereafter the drugs (10 μM) were added and diluted in a serial 1:2 dilutions down to 20 nM. The concentration range was further adjusted in subsequent setups. For testing growth inhibitory effects on proliferating cells, cells were seeded at 1,000 (HFF) and 5,000 (RH) cells per well, and were allowed to attach for 5 hours at 37°C before addition of the drugs. After 5 days of culture, cell viability was assessed by alamarBlue assay.

[2] = system: E. multilocularis metacestodes; experiment: Transmission electron microscopy of treated metacestodes; type: cell-based, Echinococcus multilocularis; conditions: 5 days
Method: In vitro-cultured metacestodes were cultured for five days in the presence of 1.6, 0.8, 0.4 or 0.1 μM MMV665807, or in the absence of the drug, and were processed for TEM as previously described. In short, primary fixation was carried out in 2% glutaraldehyde in 0.1 M sodium-cacodylate buffer, pH 7.3 for 1 h, and post-fixation in 2% osmium tetroxide in 0.1 M sodium-cacodylate buffer for 2 h. Samples were then pre-stained in saturated uranyl acetate solution in water for 30 min, washed in water, and were stepwise dehydrated in ethanol (30%, 50%, 70%, 90%, and three times 100%). Subsequently specimens were embedded in epoxy resin and polymerization of the resin was carried out at 60°C for 12 h. Ultrathin sections were cut using an ultramicrotome (Reichert and Jung, Vienna, Austria), and were loaded onto formvar-carbon coated nickel grids (Plano GmbH, Marburg, Germany). Specimens were stained with uranyl acetate and lead citrate, and were viewed on a Phillips EM400 transmission electron microscope operating at 80 kV.

[3] = system: E. multilocularis metacestode vesicles; conditions: 12 days, alamarBlue vesicle viability assay
adult worms = system: adult worms; parameters: method as in PMID 24416463; conditions: in vitro; read-out: IC50 against adult worms; cited from earlier work
T. gondii = system: T. gondii; parameters: method as in PMID 22970937; conditions: cited from earlier work
[4] = parameters: method as in earlier work; conditions: ref MMV; cited from earlier work
[5] = parameters: method as in earlier work; conditions: HMS, Mouse; ref MMV; cited from earlier work
[6] = parameters: method as in earlier work; conditions: MMS, Human; ref MMV; cited from earlier work
[7] = parameters: method as in earlier work; conditions: MMS, Mouse; ref MMV; cited from earlier work
[8] = parameters: method as in earlier work; conditions: PLS, ref MMV; cited from earlier work
hERG = system: hERG; parameters: method as in earlier work; conditions: ref MMV, cited from earlier work
[9] = system: E. multilocularis metacestode vesicles; experiment: microbe, parasite or virus in culture; conditions: Echinococcus multilocularis, 288 h, read-out: mean viability

Compound: O=C(Nc1cccc(C(F)(F)F)c1)c1cc(Cl)ccc1O [MMV665807]
- IC50 ([1]; confluent cells, read-out: Confluent RH (IC50)): 20.5 ± 0.13 µM
- IC50 ([1]; proliferating cells, read-out: Preconfluent RH (IC50)): 4.3 ± 0.14 µM
- ultrastructural alterations (TEM) ([2]; 0.1 μM and 0.4 μM): did not show any major alterations
- ultrastructural alterations (TEM) ([2]; 0.8 μM): Clear alterations in the Echinococcus ultrastructure
- ultrastructural alterations (TEM) ([2]; 1.6 μM): clear signs of cell death
- lowest concentration that almost completely abolishes viability of the metacestode tissue [3]: 1.6 µM
- IC50 (adult worms): 0.6 to 1.3 µM
- in vitro activity against T. gondii (T. gondii): moderate in vitro activity
- Kinetic Solubility pH=7.4 [4]: 1.12 µg/mL and 3.55 µM
- CLint [5]: 302.9 mL/min/kg
- t½ [5]: 27.2 min
- CL [6]: 66.8 µL/min/mg
- CLh [6]: 15.9 mL/min/kg
- CLint [6]: 66.1 mL/min/kg
- T1/2 [6]: 41.5 min
- CL [7]: 190.4 µL/min/mg
- CLh [7]: 80.4 mL/min/kg
- CLint [7]: 754.0 mL/min/kg
- T1/2 [7]: 14.6 min
- % Remaining after Incubation (60 min) Human Plasma [8]: 83.2%
- hERG % I (1uM) (hERG; 1uM): 18%
- hERG % I (11uM) (hERG; 11uM): 40%
- hERG activity level (hERG): Weakly active
- viability at 0.1 µM [9]: 59.7%
- viability at 0.2 µM [9]: 65.5%
- viability at 0.4 µM [9]: 69%
- viability at 0.8 µM [9]: 97.9%
- viability at 1.6 µM [9]: 5.29%
- viability at 3.1 µM [9]: 6.06%
- viability at 6.3 µM [9]: 4.71%
- viability at 12.5 µM [9]: 2.84%
- viability at 25 µM [9]: 2.92%
- viability at 50 µM [9]: 2.9%
- viability at 100 µM [9]: 3.06%
